Here are results for 13 compounds from the SangsterLogP compilation.

With `COC(=O)c1cc2cc(Cl)ccc2s1`, the logP (as a rule, the decadic logarithm of the partition coefficient of the neutral form, usually between octanol and water) came out at 3.81. In turn, `OCc1cc2cc(Cl)ccc2s1` showed a logP of 2.71. For `OCc1cc2ccccc2s1` the value was 2.08; for `CN(C)N=Cc1sc2ccc(Cl)cc2c1Br`, 4.54.

Compound `O=Cc1sc2ccc(Cl)cc2c1Br` returned a logP of 3.89. The result for `COc1ccc(OC)c2sc(C=O)cc12` reads 2.75; that for `COC(=O)c1cc2ccccc2s1`, 3.21.

`CN(C)N=Cc1cc2cc(Cl)ccc2s1` gave a lipophilicity (logP) of 4.18. For `OCc1sc2ccc(Cl)cc2c1Br` the value was 3.6; for `COc1ccc(OC)c2sc(CO)cc12`, 2.11. `COC(=O)c1cc2ccc([N+](=O)[O-])cc2s1` displayed a logP of 3.06. `COC(=O)c1sc2c(OC)ccc(OC)c2c1N`: the logP came out at 2.97. The result for `O=Cc1cc2cc(Cl)ccc2s1` reads 2.94.
